# Test system: Lolium multiflorum
# Assay: Pre-emergence herbicidal activity
# Type: in vivo
# Details: pre-emergence method, application rate of 0.1 kg or less of active substance per hectare, visual scoring after 3 to 4 weeks
# From the text: (§1) Seeds or rhizome pieces of mono- and dicotyledonous weeds were placed in sandy loam in cardboard pots and covered with soil. The compounds according to the invention, formulated in the form of wettable powders or emulsion concentrates, were then applied to the surface of the covering soil in the form of aqueous suspensions or emulsions at an application rate of 100 to 8001 of water/ha (converted), at various dosages.
# (§2) After the treatment, the pots were placed in a greenhouse and kept under good growth conditions for the weeds. Visual scoring of the damage to the plants or the emergence damage was carried out after the emergence of the test plants after a test period of 3 to 4 weeks, by comparison with untreated controls. As shown by the results, the compounds according to the invention have good herbicidal pre-emergence activity against a broad spectrum of weed grasses and broad-leaved weeds.
row,SMILES,herbicidal activity
1,"COc1nc(C)nc(NC(=O)NS(=O)(=O)c2ccccc2I)n1 [2-iodo-N-[(4-methoxy-6-methyl-1,3,5-triazin-2-yl)carbamoyl]benzenesulfonamide]",very good herbicidal activity
2,CC[N+](CC)(CC)CC.COc1nc(C)nc(NC(=O)[N-]S(=O)(=O)c2ccccc2I)n1 [Compound I-12],very good herbicidal activity
3,CCCC[N+](CCCC)(CCCC)CCCC.COc1nc(C)nc(NC(=O)[N-]S(=O)(=O)c2ccccc2I)n1 [Compound I-18],very good herbicidal activity

# Test system: Matricaria inodora
# Assay: Pre-emergence herbicidal activity
# Type: in vivo
# Details: pre-emergence method, application rate of 0.1 kg or less of active substance per hectare, visual scoring after 3 to 4 weeks
# From the text: as §1, §2
row,SMILES,herbicidal activity
1,"COc1nc(C)nc(NC(=O)NS(=O)(=O)c2ccccc2I)n1 [2-iodo-N-[(4-methoxy-6-methyl-1,3,5-triazin-2-yl)carbamoyl]benzenesulfonamide]",very good herbicidal activity
2,CC[N+](CC)(CC)CC.COc1nc(C)nc(NC(=O)[N-]S(=O)(=O)c2ccccc2I)n1 [Compound I-12],very good herbicidal activity
3,CCCC[N+](CCCC)(CCCC)CCCC.COc1nc(C)nc(NC(=O)[N-]S(=O)(=O)c2ccccc2I)n1 [Compound I-18],very good herbicidal activity

# Test system: Papaver rhoeas
# Assay: Pre-emergence herbicidal activity
# Type: in vivo
# Details: pre-emergence method, application rate of 0.1 kg or less of active substance per hectare, visual scoring after 3 to 4 weeks
# From the text: as §1, §2
row,SMILES,herbicidal activity
1,"COc1nc(C)nc(NC(=O)NS(=O)(=O)c2ccccc2I)n1 [2-iodo-N-[(4-methoxy-6-methyl-1,3,5-triazin-2-yl)carbamoyl]benzenesulfonamide]",very good herbicidal activity
2,CC[N+](CC)(CC)CC.COc1nc(C)nc(NC(=O)[N-]S(=O)(=O)c2ccccc2I)n1 [Compound I-12],very good herbicidal activity
3,CCCC[N+](CCCC)(CCCC)CCCC.COc1nc(C)nc(NC(=O)[N-]S(=O)(=O)c2ccccc2I)n1 [Compound I-18],very good herbicidal activity

# Test system: Stellaria media
# Assay: Pre-emergence herbicidal activity
# Type: in vivo
# Details: pre-emergence method, application rate of 0.1 kg or less of active substance per hectare, visual scoring after 3 to 4 weeks
# From the text: as §1, §2
row,SMILES,herbicidal activity
1,"COc1nc(C)nc(NC(=O)NS(=O)(=O)c2ccccc2I)n1 [2-iodo-N-[(4-methoxy-6-methyl-1,3,5-triazin-2-yl)carbamoyl]benzenesulfonamide]",very good herbicidal activity
2,CC[N+](CC)(CC)CC.COc1nc(C)nc(NC(=O)[N-]S(=O)(=O)c2ccccc2I)n1 [Compound I-12],very good herbicidal activity
3,CCCC[N+](CCCC)(CCCC)CCCC.COc1nc(C)nc(NC(=O)[N-]S(=O)(=O)c2ccccc2I)n1 [Compound I-18],very good herbicidal activity

# Test system: Viola tricolor
# Assay: Pre-emergence herbicidal activity
# Type: in vivo
# Details: pre-emergence method, application rate of 0.1 kg or less of active substance per hectare, visual scoring after 3 to 4 weeks
# From the text: as §1, §2
row,SMILES,herbicidal activity
1,"COc1nc(C)nc(NC(=O)NS(=O)(=O)c2ccccc2I)n1 [2-iodo-N-[(4-methoxy-6-methyl-1,3,5-triazin-2-yl)carbamoyl]benzenesulfonamide]",very good herbicidal activity
2,CC[N+](CC)(CC)CC.COc1nc(C)nc(NC(=O)[N-]S(=O)(=O)c2ccccc2I)n1 [Compound I-12],very good herbicidal activity
3,CCCC[N+](CCCC)(CCCC)CCCC.COc1nc(C)nc(NC(=O)[N-]S(=O)(=O)c2ccccc2I)n1 [Compound I-18],very good herbicidal activity

# Test system: Abuthilon theophrasti
# Assay: Post-emergence action against weeds
# Type: in vivo
# Details: post-emergence method, application rate of 0.1 kg or less of active substance per hectare, visual scoring after about 3 to 4 weeks
# Method: (§3) Seeds or rhizome pieces of monocotyledonous and dicotyledonous weeds were placed in sandy loam in plastic pots, covered with soil and cultivated in a greenhouse under good growth conditions. Three weeks after sowing, the test plants were treated at the three-leaf stage.
row,SMILES,herbicidal activity
1,"COc1nc(C)nc(NC(=O)NS(=O)(=O)c2ccccc2I)n1 [2-iodo-N-[(4-methoxy-6-methyl-1,3,5-triazin-2-yl)carbamoyl]benzenesulfonamide]",very good herbicidal activity
2,CC[N+](CC)(CC)CC.COc1nc(C)nc(NC(=O)[N-]S(=O)(=O)c2ccccc2I)n1 [Compound I-12],very good herbicidal activity
3,CCCC[N+](CCCC)(CCCC)CCCC.COc1nc(C)nc(NC(=O)[N-]S(=O)(=O)c2ccccc2I)n1 [Compound I-18],very good herbicidal activity

# Test system: Amaranthus retroflexus
# Assay: Post-emergence action against weeds
# Type: in vivo
# Details: post-emergence method, application rate of 0.1 kg or less of active substance per hectare, visual scoring after about 3 to 4 weeks
# Method: as §3
row,SMILES,herbicidal activity
1,"COc1nc(C)nc(NC(=O)NS(=O)(=O)c2ccccc2I)n1 [2-iodo-N-[(4-methoxy-6-methyl-1,3,5-triazin-2-yl)carbamoyl]benzenesulfonamide]",very good herbicidal activity
2,CC[N+](CC)(CC)CC.COc1nc(C)nc(NC(=O)[N-]S(=O)(=O)c2ccccc2I)n1 [Compound I-12],very good herbicidal activity
3,CCCC[N+](CCCC)(CCCC)CCCC.COc1nc(C)nc(NC(=O)[N-]S(=O)(=O)c2ccccc2I)n1 [Compound I-18],very good herbicidal activity

# Test system: Ipomoea purpurea
# Assay: Post-emergence action against weeds
# Type: in vivo
# Details: post-emergence method, application rate of 0.1 kg or less of active substance per hectare, visual scoring after about 3 to 4 weeks
# Method: as §3
row,SMILES,herbicidal activity
1,"COc1nc(C)nc(NC(=O)NS(=O)(=O)c2ccccc2I)n1 [2-iodo-N-[(4-methoxy-6-methyl-1,3,5-triazin-2-yl)carbamoyl]benzenesulfonamide]",very good herbicidal activity
2,CC[N+](CC)(CC)CC.COc1nc(C)nc(NC(=O)[N-]S(=O)(=O)c2ccccc2I)n1 [Compound I-12],very good herbicidal activity
3,CCCC[N+](CCCC)(CCCC)CCCC.COc1nc(C)nc(NC(=O)[N-]S(=O)(=O)c2ccccc2I)n1 [Compound I-18],very good herbicidal activity

# Test system: Lolium multiflorum
# Assay: Post-emergence action against weeds
# Type: in vivo
# Details: post-emergence method, application rate of 0.1 kg or less of active substance per hectare, visual scoring after about 3 to 4 weeks
# Method: as §3
row,SMILES,herbicidal activity
1,"COc1nc(C)nc(NC(=O)NS(=O)(=O)c2ccccc2I)n1 [2-iodo-N-[(4-methoxy-6-methyl-1,3,5-triazin-2-yl)carbamoyl]benzenesulfonamide]",very good herbicidal activity
2,CC[N+](CC)(CC)CC.COc1nc(C)nc(NC(=O)[N-]S(=O)(=O)c2ccccc2I)n1 [Compound I-12],very good herbicidal activity
3,CCCC[N+](CCCC)(CCCC)CCCC.COc1nc(C)nc(NC(=O)[N-]S(=O)(=O)c2ccccc2I)n1 [Compound I-18],very good herbicidal activity

# Test system: Matricaria inodora
# Assay: Post-emergence action against weeds
# Type: in vivo
# Details: post-emergence method, application rate of 0.1 kg or less of active substance per hectare, visual scoring after about 3 to 4 weeks
# Method: as §3
row,SMILES,herbicidal activity
1,"COc1nc(C)nc(NC(=O)NS(=O)(=O)c2ccccc2I)n1 [2-iodo-N-[(4-methoxy-6-methyl-1,3,5-triazin-2-yl)carbamoyl]benzenesulfonamide]",very good herbicidal activity
2,CC[N+](CC)(CC)CC.COc1nc(C)nc(NC(=O)[N-]S(=O)(=O)c2ccccc2I)n1 [Compound I-12],very good herbicidal activity
3,CCCC[N+](CCCC)(CCCC)CCCC.COc1nc(C)nc(NC(=O)[N-]S(=O)(=O)c2ccccc2I)n1 [Compound I-18],very good herbicidal activity

# Test system: Stellaria media
# Assay: Post-emergence action against weeds
# Type: in vivo
# Details: post-emergence method, application rate of 0.1 kg or less of active substance per hectare, visual scoring after about 3 to 4 weeks
# Method: as §3
row,SMILES,herbicidal activity
1,"COc1nc(C)nc(NC(=O)NS(=O)(=O)c2ccccc2I)n1 [2-iodo-N-[(4-methoxy-6-methyl-1,3,5-triazin-2-yl)carbamoyl]benzenesulfonamide]",very good herbicidal activity
2,CC[N+](CC)(CC)CC.COc1nc(C)nc(NC(=O)[N-]S(=O)(=O)c2ccccc2I)n1 [Compound I-12],very good herbicidal activity
3,CCCC[N+](CCCC)(CCCC)CCCC.COc1nc(C)nc(NC(=O)[N-]S(=O)(=O)c2ccccc2I)n1 [Compound I-18],very good herbicidal activity

# Test system: Veronica persica
# Assay: Post-emergence action against weeds
# Type: in vivo
# Details: post-emergence method, application rate of 0.1 kg or less of active substance per hectare, visual scoring after about 3 to 4 weeks
# Method: as §3
row,SMILES,herbicidal activity
1,"COc1nc(C)nc(NC(=O)NS(=O)(=O)c2ccccc2I)n1 [2-iodo-N-[(4-methoxy-6-methyl-1,3,5-triazin-2-yl)carbamoyl]benzenesulfonamide]",very good herbicidal activity
2,CC[N+](CC)(CC)CC.COc1nc(C)nc(NC(=O)[N-]S(=O)(=O)c2ccccc2I)n1 [Compound I-12],very good herbicidal activity
3,CCCC[N+](CCCC)(CCCC)CCCC.COc1nc(C)nc(NC(=O)[N-]S(=O)(=O)c2ccccc2I)n1 [Compound I-18],very good herbicidal activity

# Test system: Viola tricolor
# Assay: Post-emergence action against weeds
# Type: in vivo
# Details: post-emergence method, application rate of 0.1 kg or less of active substance per hectare, visual scoring after about 3 to 4 weeks
# Method: as §3
row,SMILES,herbicidal activity
1,"COc1nc(C)nc(NC(=O)NS(=O)(=O)c2ccccc2I)n1 [2-iodo-N-[(4-methoxy-6-methyl-1,3,5-triazin-2-yl)carbamoyl]benzenesulfonamide]",very good herbicidal activity
2,CC[N+](CC)(CC)CC.COc1nc(C)nc(NC(=O)[N-]S(=O)(=O)c2ccccc2I)n1 [Compound I-12],very good herbicidal activity
3,CCCC[N+](CCCC)(CCCC)CCCC.COc1nc(C)nc(NC(=O)[N-]S(=O)(=O)c2ccccc2I)n1 [Compound I-18],very good herbicidal activity

# Test system: barley
# Assay: Compatibility with crop plants
# Type: in vivo
# Details: pre- or post-emergence treatment in the greenhouse; visual scoring four to five weeks after application; even at relatively high application rates
# From the text: In further tests in the greenhouse, seeds of a relatively large number of crop plants and weeds were placed in sandy loam and covered with soil. Some of the pots were immediately treated as described in section 1, the others were placed in the greenhouse until the plants had developed two to three true leaves and were then sprayed with 2-iodo-N-[(4-methoxy-6-methyl-1,3,5-triazin-2-yl)carbamoyl]benzenesulfonamide and also, for example, the compounds Nos. I-1, I-2, I-3, I-4, I-12, I-18 and 1-19 from Table 1, as described in section 2.
row,SMILES,damage to barley
1,"COc1nc(C)nc(NC(=O)NS(=O)(=O)c2ccccc2I)n1 [2-iodo-N-[(4-methoxy-6-methyl-1,3,5-triazin-2-yl)carbamoyl]benzenesulfonamide]",did not damage barley at all or left only marginal traces of damage
2,CC[N+](CC)(CC)CC.COc1nc(C)nc(NC(=O)[N-]S(=O)(=O)c2ccccc2I)n1 [Compound I-12],did not damage barley at all or left only marginal traces of damage
3,CCCC[N+](CCCC)(CCCC)CCCC.COc1nc(C)nc(NC(=O)[N-]S(=O)(=O)c2ccccc2I)n1 [Compound I-18],did not damage barley at all or left only marginal traces of damage

# Source: patent US20100311592A1, “USE OF 2-IODO-N 4-METHOXY-6-METHYL-1,3,5-TRIAZINE-2-YL CARBAMOYL BENZENESULFONAMIDE AND/OR SALTS THEREOF FOR COMBATING UNDESIRED PLANT GROWTH IN SELECTED USEFUL PLANT CROPS OR NON-CULTIVATED LAND” (Bayer CropScience AG, priority 2007, published 2010)
